# Reference: article PMC3454389, “Mining the Sinorhizobium meliloti Transportome to Develop FRET Biosensors for Sugars, Dicarboxylates and Cyclic Polyols” (PLoS ONE, 2012)
# Assays:
# [1] = system: RL2376-RO; assay: RL2376-RO, FRET ratio change on ligand; type: binding, Rhizobium leguminosarum
# Protocol: (§1) Ligand-induced FRET ratio changes of purified FRET biosensor were screened using a LS55 luminescence spectrometer (PerkinElmer Instruments). Excitation (ex.) was at (λ/slit width) 433/10 nm (CFP) or 549/10 nm (OFP). Emission (em.) was measured at 475/10 nm (CFP), 527/10 nm (YFP), 573/10 nm (OFP) and 644/10 nm (RFP). To confirm that Aphrodite and mKate2 were properly folded their fluorescence was individually tested by direct excitation at 510/6 nm and 588/10 nm respectively.
# Affinity constants (Kd) of FRET biosensors with specific ligands were established using a monochromator microplate reader (Safire, Tecan, Switzerland; CFP ex.: (λ\bandwidth) 433/12 nm, em.: 475/12 nm; YFP em.: 527/12 nm. OFP ex.: 533/12 nm, em.: 563/12 nm; RFP em.: 615/12 nm). Proteins were diluted to give relative fluorescence units (RFU) in the detection range of 30,000 to 50,000 RFU at a gain of 90 to 100, and then were added to a dilution series (10^−3 to 10^−11 M) of ligand in Tris-HCl (pH 8.5, 50 mM). The change in relative emission intensities at 527/477 nm (YFP/CFP) or 615/563 nm (RFP/OFP) was used to determine Kd by fitting the titration curves to a single-site-binding isotherm: [drawing 1] with: R, ratio; Rapo, ratio without ligand; Rsat, ratio at saturation of ligand; n, number of equal binding sites; [L], ligand concentration. […]
# [2] = molecular target: T1, RL2376-CY (Rhizobium leguminosarum, UniProt Q1MGQ3); assay: FRET biosensor RL2376-CY, in vitro ligand titration; type: binding; settings: pCYS (pLMB394), Tris-HCl pH 8.5, read-out: Kd
# T1 sequence (Q1MGQ3 24-320): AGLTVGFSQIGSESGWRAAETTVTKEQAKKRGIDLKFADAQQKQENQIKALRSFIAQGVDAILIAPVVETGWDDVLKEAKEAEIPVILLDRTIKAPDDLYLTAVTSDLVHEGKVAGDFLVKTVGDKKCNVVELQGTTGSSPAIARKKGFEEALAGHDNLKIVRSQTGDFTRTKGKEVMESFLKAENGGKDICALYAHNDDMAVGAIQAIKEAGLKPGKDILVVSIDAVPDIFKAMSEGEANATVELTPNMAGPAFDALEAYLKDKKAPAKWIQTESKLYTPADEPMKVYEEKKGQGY
# Protocol: as §1
# Affinity constants (Kd) of FRET biosensors with specific ligands were established using a monochromator microplate reader (Safire, Tecan, Switzerland; CFP ex.: (λ\bandwidth) 433/12 nm, em.: 475/12 nm; YFP em.: 527/12 nm. OFP ex.: 533/12 nm, em.: 563/12 nm; RFP em.: 615/12 nm). Proteins were diluted to give relative fluorescence units (RFU) in the detection range of 30,000 to 50,000 RFU at a gain of 90 to 100, and then were added to a dilution series (10^−3 to 10^−11 M) of ligand in Tris-HCl (pH 8.5, 50 mM). The change in relative emission intensities at 527/477 nm (YFP/CFP) or 615/563 nm (RFP/OFP) was used to determine Kd by fitting the titration curves to a single-site-binding isotherm: [drawing 1] with: R, ratio; Rapo, ratio without ligand; Rsat, ratio at saturation of ligand; n, number of equal binding sites; [L], ligand concentration. Non-linear regression was used to fit the curves using SigmaPlot 11 (Systat Software Inc.) (Hill equation, 4 Parameters, b = 1). All measurements were done in quadruplicate.
# [3] = molecular target: YtfQ; design: method as in PMID 19744923; settings: YtfQ from E. coli; cited from earlier work
# [4] = system: genes encoding the ABC-transporter (RL2376-9); settings: RL2376, Table 1; cited from earlier work
structure (smiles),measurement,setting,value
O=C[C@H](O)[C@@H](O)[C@@H](O)[C@H](O)CO [D-galactose],change in FRET ratio on binding ligand,[1],no change in FRET ratio
same,Kd,[2],5.3 µM
same,Kd,[3],1.7 ± 0.3 µM
same,Inducer of gene expression (fold change),[4],D-galactose (2.6) fold
